{
  "source": "patent US20050159419A1",
  "about": "“Compositions of a cyclooxygenase-2 selective inhibitor and a central nervous system stimulant for the treatment of central nervous system damage” (Pharmacia Corporation, priority 2003, published 2005)",
  "origin": "cited, not measured here",
  "key": {"human stroke victims": {"test_system": "human stroke victims", "conditions": "coupled with physical therapy, compared to stroke victims receiving only physical therapy"}},
  "data": [
    {"molecule": "CC(N)Cc1ccccc1", "note": "(centres unmarked) [amphetamine]", "values": [
      {"measurement": "motor recovery", "setting": "human stroke victims", "result": "accelerated motor recovery"},
      {"measurement": "alternative circuit activation", "setting": "infarcted rats", "result": "promoted alternative circuit activation"}
    ]}
  ]
}
